According to patent US10494402B2, “Peptides that stimulate subcutaneous adipogenesis” (The Regents of the University of California, priority 2012, dated 2019):
“Also recorded” adds a separate entry of the source.

Columns and labels:
[1] = tested on: rat mesenchymal stem cells; assay: Adipogenesis Assay 1 (IBMX/dexamethasone priming, peptide replaces insulin; Oil Red O or BODIPY); assay type: cell-based; conditions: for Fold adipogenic induction vs. negative control / Specific activity (activity/1000 daltons) / adipogenesis, absorption of Oil Red O at 520 nm, fold increase compared with negative control / adipogenesis, number of fat droplets relative to negative controls (image analysis): Assay 1; for adipogenesis, absorption of Oil Red O at 520 nm, fold increase compared with negative control / adipogenesis, number of fat droplets relative to negative controls (image analysis): rat bone marrow mesenchymal stem cells, n=3; for adipogenesis, absorption of Oil Red O at 520 nm, fold increase compared with negative control: 0.1-25 μg
Experimental: Reagents: (1) 3-isobutyl-1-methylxanthine (IBMX) solution: 0.5M in DMSO; (2) Insulin solution: 10 mg/mL recombinant human insulin; (3) Dexamethasone solution in 10 mM in ethanol; (4) Oil Red O (0.36% in 60% isopropanol) or BODIPY dye (BODIPY 493/503 (4,4-difluoro-1,3,5,7-tetramethyl-4-bora-3a,4a-diaza-s-indacene-8-propionic acid, succinimidyl ester) from Invitrogen at 4-10 μM).
Adipogenesis Initiation Media: mesenchymal stem cell expansion media/0.5 mM IBMX/1 μM dexamethasone. Mesenchymal stem cell expansion media is commercially available from Millipore. The IBMX Solution was diluted 1:1000 and the Dexamethasone Solution was diluted 1:10,000 in expansion media containing antibiotics and antimycotics. The prepared media was stored at 4° C.
Adipogenesis Progression Media for positive control: mesenchymal stem cell expansion media/10 μg/mL insulin. The Insulin Solution was diluted 1:1000 in the expansion media and stored at 4° C.
Experimental Adipogenesis Progression Media: mesenchymal stem cell expansion media/1-100 μg/mL RHAMM antagonist peptides.
Adipogenesis Maintenance Media: mesenchymal stem cell expansion media containing antibiotics and antimycotics.
Negative Control Media: DMEM/10% normal calf serum.
Pre-adipocyte stem cells including bone marrow mesenchymal stem cells and fibroblasts including reticular and papillary dermal fibroblasts were propagated using standard tissue culture methods. Cells were trypsinized to remove the cells from the substratum. The trypsin was neutralized and cells were counted using a hemocytometer. Cells were resuspended at 30,000 cells/mL in expansion media. […] of cell suspension was plated per well of 24-well plate, with several wells left empty for blank well staining.
Cells were incubated for 1-2 days until they reached confluency. Approximately 1.8 mL of media was removed from each well and replaced with 2 mL Adipogenesis Initiation Media. For negative control wells, expansion media only was used at this step and for subsequent media changes. For all media changes, media was replaced as gently as possible to avoid disturbing the monolayer.
Cells were incubated for 48 hours at 37° C., 5% CO2. 2 mL media was removed from each well, and replaced with 2 mL either positive control or experimental Adipogenesis Progression Media per well. Cells were again incubated for 48 hours at 37° C., 5% CO2. 2 mL of media was removed from each well and replaced with 2 mL Adipogenesis Maintenance Media per well. In addition, media was added to the empty wells reserved for blank well staining Cells were incubated for at least 48 hours at 37° C., 5% CO2. Media was replaced every 48-72 hours. Accumulation of intracellular lipid droplets continued for at least 5 days.
For quantification of Oil Red O staining, media was removed and cells were washed twice with PBS, using care to gently add the PBS. 0.5 mL Oil Red O solution was added per well of 24-well plate, including to the wells lacking cells, but containing media. Cells were incubated for 15 minutes at room temperature. The staining solution was then removed and wells were washed three times with 1 mL of phosphate buffered saline (PBS). In some experiments, following removal of the last wash, stained plates were scanned or photographed.
Adipogenesis was quantified using a spectrophotometer or fluorometer. 0.25 mL Dye Extraction Solution (isopropyl alcohol) was added per well, and the plate was set on an orbital shaker or platform rocker for 15-30 minutes. Extracted dye was transferred into a cuvette and absorbance was read in a spectrophotometer at visible range for oil red 0 or transferred to a 96-well plate and quantified in a plate reader.
For quantification of BODIPY dye uptake, media was removed and cells were washed twice with PBS, using care to gently add the PBS. Cells were then fixed in 3% paraformaldehyde, washed in PBS then incubated for 1 hour in the dark with the BODIPY solution, prepared in PBS. […]

[2] = tested on: Rat skin; assay: Rat dermal skin model of adipogenesis (injection into dermis); assay type: in vivo
Experimental: Examples of the adipogenic effects of RHAMM antagonists (peptide B (SEQ ID NO: 2), peptide P15-1 (SEQ ID NO. 1), and the antibody to peptide B) are summarized in Table 1. Peptide P15-1, peptide B, and a RHAMM antibody were assayed for their effects on pre-adipocyte stem cells in culture and when injected into the dermis of aged rats. Reagents were ranked on a scale of 0-5 with 5 representing the highest possible score and a completely filled in Harvey ball. “2D” refers to two-dimensional tissue culture.
In FIGS. 5A and 5B, data are shown as a ratio of the area (“surface area”) of fat pads expressed as a ratio of experimental/control values.
The 6-mer (KSEVSK; SEQ ID NO: 3) was tested for adipogenic effect in rat skin in vivo. The results of this testing are shown in the photographs in FIG. 10.

[3] = tested on: human subcutaneous pre-adipocytes; assay: Differentiation of human subcutaneous pre-adipocytes; assay type: cell-based; conditions: for adipogenesis, Oil Red O staining, absence of both insulin and PPARγ agonist: FIGS. 23, 24; for adipogenesis, extracted Oil Red O: experimental cocktail lacked PPARγ agonist and insulin
From the text: As noted above, this adipogenic cocktail contained pantothenate, dexamethasone, isobutylmethylxanthine (IBMX), human insulin and a PPARγ agonist. For these experiments, the following conditions were used as negative controls: (1) Preadipocyte Medium only; (2) the adipogenic cocktail without PPARγ agonist (PPARγ-); and (3) the adipogenic cocktail without PPARγ agonist or human insulin.
The positive control for FIG. 21 was the complete adipogenic medium containing both the PPARγ agonist and insulin: The experimental cocktail contained the B peptide or the KSEVSK 6-mer, but lacked PPARγ agonist and insulin. Adipogenesis levels were quantified by measuring extracted Oil Red 0.
The following conditions were used as negative controls: (Ctr no-γ)=monolayers cultured in adipogenic cocktail but without PPARγ agonist, (Ctr no-γ, no-Ins)=monolayers cultured in adipogenic cocktail but without PPARγ agonist or human insulin. To test the adipogenic activity of the KSEVSK 6-mer and B peptides, the human pre-adipocytes were exposed to the above negative controls plus either the KSEVSK 6-mer or the B peptide at concentrations of 5 μg/ml and 20 μg/ml. Statistical analysis were performed compared to negative control. Data presented as mean±standard error (n=3)

[4] = tested on: human reticular fibroblasts (HRF); assay: Transdifferentiation of primary human dermal fibroblasts, reticular; assay type: cell-based; conditions: 5 μg/ml, peptide replaced insulin
Experimental: The B peptide and the KSEVSK 6-mer were also tested for their adipogenic effect on primary human dermal fibroblasts from the upper (papillary) and lower (reticular) dermal layers. The primary human fibroblasts were obtained from dermatome sections of biopsies from human volunteers. Cells were cultured and exposed to adipogenic medium. In these experiments, the B peptide and the KSEVSK 6-mer replaced insulin as the adipogenic stimulus. The peptides were used at a concentration of 5 μg/ml. Adipogenesis was assessed by Oil Red O staining. […] White arrows show fat droplets.

KLKDENSQLKSEVSK [peptide B]
Fold adipogenic induction vs. negative control [1]: 1.85 | Specific activity (activity/1000 daltons) [1]: 1.0 activity/1000 daltons | amount at which a maximum adipogenic effect was obtained ([1]; bone marrow mesenchymal stem cells, depending upon the screening assay used (assay 1 or 2)): 1 to 5 µg | adipogenesis, absorption of Oil Red O at 520 nm, fold increase compared with negative control [1]: significantly stimulated adipogenesis as compared to the negative control | adipogenesis, number of fat droplets relative to negative controls (image analysis) [1]: significantly stimulated adipogenesis as compared to the negative control | fat accumulation (fat pads) ([2]; 25-50 μg/injection site): induced significant fat accumulation | animals in which reagent was most effective (fat pad surface area, experimental/control) ([2]; FIGS. 5A and 5B): most effective in old females | adipogenic potential, In vivo Rat skin ([2]; injected into the dermis of aged rats, scale of 0-5, 5 highest): 5 | adipogenesis, Oil Red O staining, absence of both insulin and PPARγ agonist [3]: stimulates adipogenesis | adipogenesis, extracted Oil Red O [3]: significantly (p<0.05) increased adipogenesis above the negative control levels | transdifferentiation into adipocytes, Oil Red O staining ([4]; listed as B peptide): stimulated the transdifferentiation; also recorded: stimulated the trans-differentiation

KSEVSK [KSEVSK 6-mer]
Fold adipogenic induction vs. negative control [1]: 2.83 | Specific activity (activity/1000 daltons) [1]: 3.76 activity/1000 daltons | specific activity compared among peptide B and 9-, 7-, 6-mer ([1]; calculated from adipogenesis data of assays 1 and 2): highest specific activity | adipogenesis, absorption of Oil Red O at 520 nm, fold increase compared with negative control [1]: significantly stimulated adipogenesis as compared to the negative control | adipogenesis, number of fat droplets relative to negative controls (image analysis) [1]: significantly stimulated adipogenesis as compared to the negative control | adipogenic activity of truncation fragments ([1]; truncation experiments, assays 1 and 2, FIGS. 7, 8, 9): also found to be adipogenic | fat pad induction in rat skin in vivo ([2]; FIG. 10): able to induce large fat pads, possibly larger than peptide B | adipogenesis, Oil Red O staining, absence of PPARγ agonist ([3]; FIG. 22): stimulates adipogenesis | adipogenesis, Oil Red O staining, absence of both insulin and PPARγ agonist [3]: stimulates adipogenesis | adipogenesis, extracted Oil Red O [3]: significantly (p<0.05) increased adipogenesis above the negative control levels | transdifferentiation into adipocytes, Oil Red O staining [4]: stimulated the transdifferentiation
